Series [1] addresses T1, Solute carrier organic anion transporter family member 1B3 (Homo sapiens, UniProt Q9NPD5).
T1 sequence (Q9NPD5 whole entry): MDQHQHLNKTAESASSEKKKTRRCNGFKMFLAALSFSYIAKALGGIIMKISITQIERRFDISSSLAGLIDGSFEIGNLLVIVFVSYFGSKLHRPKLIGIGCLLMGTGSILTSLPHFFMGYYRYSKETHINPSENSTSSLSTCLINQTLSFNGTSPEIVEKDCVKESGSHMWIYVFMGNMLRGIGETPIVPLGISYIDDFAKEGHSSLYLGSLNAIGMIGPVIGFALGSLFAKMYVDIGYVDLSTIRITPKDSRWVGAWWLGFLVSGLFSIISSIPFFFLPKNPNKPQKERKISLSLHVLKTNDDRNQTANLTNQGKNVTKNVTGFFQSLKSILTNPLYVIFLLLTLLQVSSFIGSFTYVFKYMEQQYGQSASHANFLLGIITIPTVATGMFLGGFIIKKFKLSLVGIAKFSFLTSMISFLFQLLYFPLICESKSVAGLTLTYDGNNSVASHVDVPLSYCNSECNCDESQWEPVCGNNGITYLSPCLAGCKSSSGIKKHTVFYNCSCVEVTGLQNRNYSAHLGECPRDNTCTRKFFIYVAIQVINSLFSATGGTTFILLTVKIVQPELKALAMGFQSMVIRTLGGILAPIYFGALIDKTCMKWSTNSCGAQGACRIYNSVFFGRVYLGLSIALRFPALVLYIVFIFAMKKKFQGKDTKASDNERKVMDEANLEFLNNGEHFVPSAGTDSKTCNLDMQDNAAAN
As to conditions: chinese hamster, cho, 10 µM.

Series [2] concerns the target T2, Solute carrier organic anion transporter family member 1B1 (Homo sapiens, UniProt Q9Y6L6).
T2 sequence (Q9Y6L6 whole entry): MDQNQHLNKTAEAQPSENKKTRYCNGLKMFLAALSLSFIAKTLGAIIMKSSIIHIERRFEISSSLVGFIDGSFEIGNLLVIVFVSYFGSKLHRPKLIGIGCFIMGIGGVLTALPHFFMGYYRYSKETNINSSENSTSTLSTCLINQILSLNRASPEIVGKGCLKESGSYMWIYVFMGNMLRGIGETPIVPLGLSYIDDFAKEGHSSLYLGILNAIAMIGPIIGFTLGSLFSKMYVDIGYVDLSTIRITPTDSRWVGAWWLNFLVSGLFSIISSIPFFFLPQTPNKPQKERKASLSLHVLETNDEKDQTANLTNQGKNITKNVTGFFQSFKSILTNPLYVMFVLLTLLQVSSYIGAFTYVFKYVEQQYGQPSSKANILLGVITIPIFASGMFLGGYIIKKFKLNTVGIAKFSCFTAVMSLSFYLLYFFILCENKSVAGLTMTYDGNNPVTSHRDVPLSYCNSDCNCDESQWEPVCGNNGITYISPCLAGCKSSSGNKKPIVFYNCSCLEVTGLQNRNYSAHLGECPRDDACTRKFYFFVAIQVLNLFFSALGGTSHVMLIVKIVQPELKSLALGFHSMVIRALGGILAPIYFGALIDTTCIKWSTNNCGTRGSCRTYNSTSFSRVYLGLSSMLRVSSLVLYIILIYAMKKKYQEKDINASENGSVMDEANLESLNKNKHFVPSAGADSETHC
Particulars: chinese hamster, cho, 10 µM.

For the molecule `Br.CC(N)Cc1ccc(O)cc1` (stereo not given) [HYDROXYAMPHETAMINE HYDROBROMIDE], the residual activity was 84.1% in series [1] and 85.8% in series [2].

On to `O=C1c2c(O)cccc2C([C@@H]2O[C@H](CO)[C@@H](O)[C@H](O)[C@H]2O)c2cc(CO)cc(O)c21` (stereo not given in full) [ALOIN], for which the residual activity in series [1] came to 66.8%; in series [2], 48.46%.

On to `COc1c2c(c(CC=C(C)C)c3oc(=O)c(-c4ccc(O)cc4)c(O)c13)OC(C)(C)C=C2` [LONCHOCARPIC ACID], for which the results for the residual activity in series [1] and in series [2] were 36.3% and 26.49%, respectively.

Consider `CC(CN1c2ccccc2Sc2ccccc21)N(C)C.Cl` (stereo not given) [PROMETHAZINE HYDROCHLORIDE], for which the figures for the residual activity in series [1] and in series [2] were 86.93% and 69.15%, respectively.

As to `C[C@H]1COc2c(N3CCN(C)CC3)c(F)cc3c(=O)c(C(=O)O)cn1c23.C[C@H]1COc2c(N3CCN(C)CC3)c(F)cc3c(=O)c(C(=O)O)cn1c23.O` [LEVOFLOXACIN], the residual activity in series [1] was determined as 95.07%; in series [2] it was 117.4%.

Turning to `C[C@H](CS)C(=O)N1CCC[C@H]1C(=O)O` [CAPTOPRIL], the results for the residual activity in series [1] and in series [2] were 105.2% and 167%, respectively.

Turning to `COc1ccc(/C=C/c2cc(O)cc(O[C@@H]3O[C@H](CO)[C@@H](O)[C@H](O)[C@H]3O)c2)cc1O` [RHAPONTIN], the residual activity in series [1] was 100.6%; in series [2], 166.2%.

In the case of `COc1cc2c(cc1OC)C1C(=O)c3c(cc4c(c3O)C=CC(C)(C)O4)OC1CO2` (stereo not drawn) [beta-TOXICAROL], the residual activity in series [1] was 70.52%; in series [2], 67.84%.

With `c1ccc2c(c1)[nH]c1cnccc12` [NORHARMANE], the residual activity is 87.66% in series [1] and 95.1% in series [2].

Turning to `CC(=O)O[C@@](C)(CCC=C(C)C)C1CC=C(C)CC1` (stereo not given in full) [BISABOLOL ACETATE], the residual activity in series [1] is recorded as 92.66%; in series [2], 80.65%.

With `O=c1cc(-c2ccccc2)oc2cc(O)cc(O)c12` [CHRYSIN], the residual activity in series [1] is listed as 129.1%; in series [2], 115.4%.

As for `Cl.NCCc1ccc(S(=O)(=O)F)cc1` [4-AMINOETHYLBENZENESULFONYL FLUORIDE HYDROCHLORIDE], the residual activity is given as 100% in series [1] and 71.73% in series [2].

With `CC(C)c1c(O)ccc2c1CC[C@H]1C(C)(C)CCC[C@]21C` [TOTAROL], the figures for the residual activity in series [1] and in series [2] were 131.3% and 159.4%, respectively.

With `CCn1cc(C(=O)O)c(=O)c2cc3c(cc21)OCO3` [OXOLINIC ACID], the residual activity came to 87.39% in series [1] and 55.65% in series [2].

Regarding `CCN(CC)C(=S)SSC(=S)N(CC)CC`, the results for the residual activity in series [1] and in series [2] were 64.06% and 71.59%, respectively.

For the molecule `CCOC(=O)c1c(C)cc(O)cc1O` [ORSELLINIC ACID, ETHYL ESTER], the residual activity in series [1] is recorded as 105.8%; in series [2], 116.8%.

Regarding `N=C(N)NCCCCNC(=N)N.O=S(=O)(O)O` [ARCAINE SULFATE], the values for the residual activity in series [1] and in series [2] were 96.72% and 78.37%, respectively.

Turning to `Cc1cccc(Nc2ccncc2S(=O)(=O)NC(=O)NC(C)C)c1` [TORSEMIDE], the residual activity is given as 73.29% in series [1] and 73.9% in series [2].

Take `CC(=O)Oc1cc(OC(C)=O)c2c(c1)O[C@H](c1ccc(OC(C)=O)c(OC(C)=O)c1)[C@H](OC(C)=O)C2` [EPICATECHIN PENTAACETATE]: the residual activity worked out at 76.08% in series [1] and 74.79% in series [2].

Turning to `CCC(C)C(=O)O[C@@H]1C[C@]2(C)[C@H](c3ccoc3)OC(=O)CC23OC2(C)OC34[C@H](OC(=O)C(C)C)[C@@]3(O)[C@@H](OC(=O)[C@]5(C)O[C@H]5C)[C@]5(C)C[C@@]3(O)[C@@](C)([C@H]5CC(=O)OC)C14O2` (stereo not given in full), the residual activity in series [1] is reported as 0.6163%; in series [2] it was -0.3887%.

As for `CC1=C(/C=C/C(C)=C/C=C/C(C)=C/CO)C(C)(C)CCC1` [RETINOL], the results for the residual activity in series [1] and in series [2] were 31.96% and 18.99%, respectively.

As to `CO/N=C1\CN(c2nc3c(cc2F)c(=O)c(C(=O)O)cn3C2CC2)CC1CN.CS(=O)(=O)O` (stereo not given) [GEMIFLOXACIN MESYLATE], the values for the residual activity in series [1] and in series [2] were 108.8% and 102.7%, respectively.

With `Nc1ccc(S(=O)(=O)Nc2ccnn2-c2ccccc2)cc1` [SULFAPHENAZOLE], the residual activity in series [1] amounted to 98.59%; in series [2] it was 104.5%.

Take `COc1cc(O)c2c(=O)cc(-c3ccc(OC)c(-c4c(O)cc(O)c5c(=O)cc(-c6ccc([O-])cc6)oc45)c3)oc2c1.[K+]` [GINKGETIN, K salt]: the residual activity in series [1] was 46.72%; in series [2] it was 46.45%.

For `Oc1ccc(Cl)c2cccnc12` [CLOXYQUIN], the figures for the residual activity in series [1] and in series [2] were 93.36% and 104%, respectively.

Consider `O=c1[nH]c(=O)n([C@H]2C[C@H](O)[C@@H](CO)O2)cc1C(F)(F)F` [TRIFLURIDINE], for which the residual activity is 84.35% in series [1] and 64.99% in series [2].

For the molecule `CC(C)(C)N.CCC[C@H](N[C@@H](C)C(=O)N1[C@H](C(=O)O)C[C@@H]2CCCC[C@@H]21)C(=O)OCC` [PERINDOPRIL ERBUMINE], the values for the residual activity in series [1] and in series [2] were 81.39% and 107.5%, respectively.

On to `COc1cccc2c1CCC1=CC(=O)CC[C@@]12C` [14-METHOXY-4,4-BISNOR-4,8,11,13-PODOCARPATETRAEN-3-ONE], for which the values for the residual activity in series [1] and in series [2] were 94.94% and 143.1%, respectively.

For `Nc1nc(=O)c2[nH]c(=O)cnc2[nH]1` [XANTHOPTERIN], the residual activity in series [1] was 104.7%; in series [2], 104.4%.

As to `OCCN1C[C@H](O)[C@@H](O)[C@H](O)[C@H]1CO` [MIGLITOL], the residual activity was found to be 80.3% in series [1] and 99.55% in series [2].

For `NS(=O)(=O)c1cc(C(=O)O)c(NCc2ccco2)cc1Cl` [FUROSEMIDE], the residual activity in series [1] came out at 90.27%; in series [2], 86.58%.

On to `CCC(=O)Nc1ccc(Cl)c(Cl)c1` [PROPANIL], for which the residual activity in series [1] was determined as 115.2%; in series [2] it was 92.07%.

`CCOc1ccc2ccccc2c1C(=O)N[C@@H]1C(=O)N2[C@@H]1SC(C)(C)[C@@H]2C(=O)[O-].O.[Na+]` [NAFCILLIN SODIUM]: the figures for the residual activity in series [1] and in series [2] were 114.4% and 74.51%, respectively.

For `CC(=O)O[C@H]1CC[C@@]2(C)[C@H](CC[C@@H]3[C@@H]2CC[C@]2(C)[C@@H]4[C@H](C[C@@H]32)O[C@]2(CC[C@@H](C)CO2)[C@H]4C)C1`, the residual activity in series [1] came to 92.75%; in series [2], 103.6%.

Consider `CC(=O)Oc1cc2c(c(C)c1OC(C)=O)CC1OC13[C@@]2(C)CC[C@@]1(C)C2C[C@](C)(C(=O)O)CC[C@]2(C)CC[C@]31C` (stereo not given in full), for which the residual activity in series [1] was 37.72%; in series [2], 63.61%.

For the molecule `C#CCCCCCCCCCCCC(O)CC(O)COC(C)=O` (stereo not given) [AVOCADYNE ACETATE], the results for the residual activity in series [1] and in series [2] were 109.9% and 144.6%, respectively.

For `COC1=C[C@@H]2[C@@H]3Cc4ccc(OC)c(O)c4[C@]2(CCN3C)CC1=O` [SINOMENINE], the residual activity worked out at 68.46% in series [1] and 105.5% in series [2].

Turning to `CCN(CC)CCNC(=O)c1ccc(NC(C)=O)cc1.Cl` [ACECAINIDE HYDROCHLORIDE], the residual activity is 90.6% in series [1] and 70.32% in series [2].

As for `Cc1ccc(O)cc1` [p-CRESOL], the values for the residual activity in series [1] and in series [2] were 101.1% and 115%, respectively.

Take `CC(C)(C)CC(C)(C)c1ccc(O)c(Cc2ccc(Cl)cc2Cl)c1` [CLOFOCTOL]: the figures for the residual activity in series [1] and in series [2] were 76.53% and 77.9%, respectively.

Usually residual activity stands for the signal under treatment as a percentage of the control signal.

(Values after ChEMBL document CHEMBL3039007, “Structure-based identification of OATP1B1/3 inhibitors” (Mol Pharmacol, 2013).)
